Laboratory results taken from patent US9365868B2, “Fermentation process for producing isopropanol using a recombinant microorganism” (LANZATECH NEW ZEALAND LIMITED, priority 2011, dated 2016).

Tests used:
[1] = tested on: Clostridium autoethanogenum DSM23693; assay: Experiment A: continuous fermentation on steel mill gas; type: cell-based
Procedure: Clostridium autoethanogenum DSM23693 carrying the vector pMTL83147 thl-ctfAB-adc-adh2 was grown at 37° C. under mill gas (50% CO, 18% CO2, 2% H2, and 30% N2) was continuously fed into the bioreactor. The gas flow was initially set at 80 ml/min, increasing to 200 ml/min over the course of the experiment, while the agitation was increased from 250 rpm to 750 rpm. Na2S was dosed into the bioreactor at 0.20 ml/hr, increasing to 0.4 ml/hr. The bioreactor was switched to a continuous mode at a rate of 1.0 ml/min (Dilution rate 0.96 d^−1) once the OD600 reached 0.17.
Metabolites concentrations were measured using Agilent 1100 Series HPLC system equipped with a RID operated at 35° C. (Refractive Index Detector) and an Alltech IOA-2000 Organic acid column (150×6.5 mm, particle size 5 μm) kept at 60° C. The presence of Acetone and Isopropanol was also measured using Agilent 6890N headspace GC equipped with a Supelco PDMS 100 1 cm fiber, an Alltech EC-1000 (30 m×0.25 mm×0.25 μm) column, and a flame ionization detector (FID). The composition of the gas inflows and outflows was measured using a Varian CP-4900 micro GC with two installed channels. Channel 1 was a 10 m Mol-sieve column running at 70° C., 200 kPa argon and a backflush time of 4.2 s, while channel 2 was a 10 m PPQ column running at 90° C., 150 kPa helium and no backflush. The injector temperature for both channels was 70° C. Sampling of metabolites was performed daily. Gas analysis was automated and measured hourly.
The growth and metabolite profile of Clostridium autoethanogenum DSM23693 carrying the vector pMTL83147 thl-ctfAB-adc-adh2 in a continuous fermentation over 31 days is shown in FIG. 75. The fermentation ran as a batch fermentation from inoculation to day 6. At day 7 the fermentation was switched to continuous fermentation. The increase in acetate concentration coupled with a decrease in ethanol concentration during continuous fermentation seems to have triggered a significant increase in isopropanol production. […] A GC sample was taken during the run, at day 19.

[2] = tested on: C. autoethanogenum DSM23693; assay: Experiment B: bioreactor fermentation on corex gas with cell retention; type: cell-based, Clostridium autoethanogenum; conditions: corex gas 40% CO, continuous mode with membrane cell retention
Procedure: Fermentations with C. autoethanogenum DSM23693 carrying the vector pMTL83147 thl-ctfAB-adc-adh2 were carried out in 1.5 L bioreactors at 37° C. and CO-containing steel mill gas. The fermenter was fed with corex gas (40% CO, 15% H2, 15% CO2, 30% N2) as sole energy and carbon source as described below. A defined medium was used containing per litre: MgCl, CaCl2 (0.5 mM), KCl (3 mM), H3PO4 (5 mM), Fe (100 μM), Ni, Zn (5 μM), Mn, B, W, Mo, Se (2 μM) was prepared for culture growth. The media was transferred into the bioreactor and autoclaved at 121° C. for 45 minutes. After autoclaving, the medium was supplemented with Thiamine, Pantothenate (0.05 mg), Biotin (0.02 mg) and reduced with 3 mM Cysteine-HCl. To achieve anaerobic conditions the reactor vessel was sparged with nitrogen through a 0.2 μm filter. […]
Metabolites concentrations were measured using Agilent 1100 Series HPLC system equipped with a RID operated at 35° C. […] The presence of Acetone and Isopropanol was also measured using Agilent 6890N headspace GC equipped with a Supelco PDMS 100 1 cm fiber, an Alltech EC-1000 (30 m×0.25 mm×0.25 μm) column, and a flame ionization detector (FID). The composition of the gas inflows and outflows was measured using a Varian CP-4900 micro GC with two installed channels. […] Gas analysis was automated and measured hourly.

E. coli = assay: Serum bottle experiments with plasmid constructs, sugar as sole substrate; type: cell-based, Escherichia coli; conditions: Organism E. coli, 'Detected' = by GC qualitatively
Procedure: (§1) Constructed expression plasmids pMTL85245-kivd-adh2 and pMTL85245-kivd were transformed into E. coli strain JW3350-2 and prepared for transformation in C. autoethanogenum DSM23693, which was performed as described above. […] In serum bottle experiments, highest isopropanol concentrations from CO-containing steel mill gas were 0.050-0.064 g/L for both expression plasmids (FIGS. 65 and 66).
(§2) All plasmid construct were tested in E. coli and C. autoethanogenum DSM23693 using serum bottle experiments with sugar (E. coli) or CO-containing steel mill gas (C. autoethanogenum) as sole substrate. With all combinations tested, acetone and isopropanol production was measured when expressed heterologously in C. autoethanogenum, while in E. coli acetone production only occurred with few combinations and an alcohol dehydrogenase gene was needed for isopropanol production (Table 21). […] In C. autoethanogenum, acetone and isopropanol production even occurred with expressing the decarboxylase as only heterologous gene, indicating CoA-transferase activity. FIG. 4 illustrates the proposed pathway and Table 21 of acetone and isopropanol formation from CO and FIG. 73 gives an overview of combinations of Clostridial pathway genes and codon-optimized genes for Alpha-ketoacid decarboxylase Kivd from L lactis and Alcohol dehydrogenase Adh2 from S. cerevisiae tested in E. coli and C. autoethanogenum.

[3] = tested on: C. autoethanogenum DSM23693; assay: Bottle growth experiments on CO-containing gas, acetone/isopropanol production from expression plasmids; type: cell-based, Clostridium autoethanogenum; conditions: Organism C. autoethanogenum, Substrate CO; for Acetone (g/L): 'Detected' = by GC qualitatively
Procedure: HPLC analysis of acetone, isopropanol and other metabolites was performed using an Agilent 1100 Series HPLC system equipped with a RID operated at 35° C. (Refractive Index Detector) and an Alltech IOA-2000 Organic acid column (150×6.5 mm, particle size 5 μm) kept at 60° C. Slightly acidified water was used (0.005 M H2SO4) as mobile phase with a flow rate of 0.7 ml/min. To remove proteins and other cell residues, 400 μl samples were mixed with 100 μl of a 2% (w/v) 5-Sulfosalicylic acid and centrifuged at 14,000×g for 3 min to separate precipitated residues. 10 μl of the supernatant were then injected into the HPLC for analyses.
GC analysis of acetone, isopropanol and other metabolites was performed using an Agilent 6890N headspace GC equipped with a Supelco PDMS 100 1 cm fiber, an Alltech EC-1000 (30 m×0.25 mm×0.25 μm) column, and a flame ionization detector (FID). 5 ml samples were transferred into a Hungate tube, heated to 40° C. in a water bath and exposed to the fiber for exactly 5 min. The injector was kept at 250° C. and helium with a constant flow of 1 ml/min was used as carrier gas. The oven program was 40° C. for 5 min, followed by an increase of 10° C./min up to 200° C. The temperature was then further increased to 220° C. with a rate of 50° C./min followed by a 5 min hold this temperature, before the temperature was decreased to 40° C. with a rate of 50° C./min and a final 1 min hold. The FID was kept at 250° C. with 40 ml/min hydrogen, 450 ml/min air and 15 ml/min nitrogen as make up gas.
Growth experiments were carried out with transformed C. autoethanogenum DSM23693 and C. ljungdahlii DSM 13528 carrying plasmid pMTL85147-thlA-ctfAB-adc in 250 ml PETC media (Table 2; without fructose and yeast extract) in 1 l Schott bottles with rubber stoppers and 30 psi steel mill gas (collected from New Zealand Steel site in Glenbrook, NZ; composition: 44% CO, 32% N2, 22% CO2, 2% H2) in the headspace as sole energy and carbon source. Acetone production was confirmed with both strains using HPLC and GC analysis. […] Using appropriate conditions, the produced acetone can then be further converted to isopropanol.
Therefore, both cultures were re-gassed with 30 psi fresh steel-mill gas after 48 h of growth and also re-inoculated. While biomass didn't increase much further, some of the produced acetone got converted into isopropanol within 24 hours (Table 16).
as §1, §2

[4] = tested on: Clostridium autoethanogenum DSM23693; assay: Toxicity of acetone and isopropanol on growing cultures; type: cell-based; conditions: at concentrations as high as 5%
Source text: Several metabolites such as alcohols (ethanol and butanol) or acids (acetic acid and butyric acid) are known to be toxic for bacteria in high concentrations and thus limit their biotechnological production [Alsaker K V, Parades C, Papoutsakis E T: Metabolite stress and tolerance in the production of biofuels and chemicals—systems analysis of butanol, butyrate, and Acetate Stresses in the Anaerobe Clostridium acetobutylicum. Biotechnol Bioeng, 2009, 105: 1131-1147]. To see if acetone and isopropanol have a toxic effect on cultures, growth experiments were carried out in 50 ml PETC media (Table 2) in serum bottles, adding different concentrations of acetone (FIG. 12) and isopropanol (FIG. 13) to growing cultures of Clostridium autoethanogenum DSM23693.

[5] = continuous fermentation over 31 days, mill gas 50% CO

“pMTL83147-thlA-ctfAB-adc-adh2: expression plasmid with thlA, ctfAB, adc and Adh2 from S. cerevisiae, Seq. ID. No. 98” was tested. Which “presence of the plasmid by PCR” value ([1]; checked regularly throughout the fermentation) did it give?
The value was “found to be present throughout the fermentation”.

What about the Isopropanol production rate [1, 5] of the same molecule?
Its Isopropanol production rate is 0.7 g per litre per day.

What about the isopropanol concentration reached [1, 5] of the same molecule?
The isopropanol concentration reached was 0.250 g per litre.

What about the isopropanol concentration reached [2] of the same molecule?
The isopropanol concentration reached was 0.37 g per Litre.

What about the “Acetone” value (E. coli) of the same molecule?
Its value is 0.040 g/L.

What about the “Isopropanol” value [3] of the same molecule?
Its value is 0.648 g/L.

What about the “Acetone (g/L)” value [3] of the same molecule?
The value was “Detected”.

For CC(C)=O [acetone], which “inhibition of growth rate” value [4] is on record?
Its value is “only slight inhibition of growth rate”.

For “pMTL83147-thlA-ctfAB-adc-P-kivd-adh2: expression plasmid with thlA, ctfAB, adc and Ppta-ack-kivd-adh2, Seq. ID. 101”, which “Acetone” value (E. coli) is on record?
The value was 0.076 g/L.

And the “Isopropanol” value [3]?
Its value is 0.043 g/L.

What about the “Acetone (g/L)” value [3] of the same molecule?
The value was “Detected”.

With CC(C)O [isopropanol] as the molecule, how does the “inhibition of growth rate” value [4] read?
The value was “only slight inhibition of growth rate”.

What does the source list for “pMTL85147-thlA-ctfAB-adc-kivd: combination plasmid of Clostridial genes and kivd as labelled in Table 21; probably Seq. ID. No. 95”?
Acetone (g/L) (E. coli): Detected; Isopropanol [3]: 0.091 g/L; Acetone (g/L) [3]: Detected
